US11098045B2, “Haloallylamine indole and azaindole derivative inhibitors of lysyl oxidases and uses thereof” (PHARMAXIS LTD., priority 2016, dated 2021)
Structures can show the parent of a compound that is named as a salt.

Legend:
[1] = tested on: Fibroblasts from confirmed cases of IPF; experiment: In vitro fibroblastic foci model of IPF, collagen cross-link formation; assay type: cell-based; conditions: six weeks culture with TGF-β1; FIGS. 7a and 7b
Excerpt: Reduction of Collagen Cross-Link Formation in an In Vitro Fibroblastic Foci Model of IPF
The lung tissue of patients with idiopathic pulmonary fibrosis (IPF) is characterised by dense collections of myofibroblasts and extracellular matrix (ECM) termed ‘fibroblastic foci’. Using a novel in vitro model of fibroblastic foci (Jones et al., AJRCCM 191; 2015:A4912) the formation of lysyl oxidase (LOX) mediated collagen cross-links and the effects of the non-selective LOX inhibitor β-aminopropionitrile (BAPN) as well lysyl oxidase like-2 (LOXL2)-selective inhibitors were investigated.
Cultures of primary fibroblasts were grown out from clinical diagnostic biopsies of fibrotic lung and stored in liquid nitrogen. […]
To quantify collagen cross-links (Robins Biochem Soc Trans 2007; 35(5): 849-852; Saito et al Anal. Biochem. 1997; 253: 26-32; Sims, Avery & Bailey Methods in Molecular Biology 2000; vol 139: 11-26), cultures were treated with potassium borohydride to stabilise the reducible immature cross-links, and hydrolysed in 6N HCl at 100° C. for 16 hr. Total collagen content was assessed by hydroxyproline assay. Immature cross-links were assessed by LC/MS/MS and mature pyridinoline cross-links by ELISA. Cross-link data is expressed as moles of cross-link per mole collagen. […]

[2] = tested on: Streptozotocin induced diabetic nephropathy; experiment: Streptozotocin induced diabetic nephropathy model; assay type: in vivo, mouse; conditions: diabetic eNOS knockout mice, 24 weeks treatment, 0.1-100 mg/Kg
Excerpt: Inhibition of Streptozotocin Induced Diabetic Nephropathy
Streptozotocin (STZ)-induced diabetic nephropathy is commonly used for creating rodent models of type 1 diabetes which develop renal injury, due to pancreatic cell damage with similarities to human diabetic nephropathy.
This model can be established for investigating anti-fibrotic effects of compounds in the development of kidney fibrosis.
Diabetes is induced in eNOS knockout mice on C57BL/6 background by intraperitoneal STZ injection (55 mg/kg in 0.1 M citrate buffer) in mice of 6-9 weeks of age (see Huang C et al, Blockade of KCa3.1 ameliorates renal fibrosis through a TGF-b1/Smad pathway in diabetic mice. Diabetes, 2013 62(8):2923-2934).
Blood sugar level (BSL) is determined by tail vein blood. Mice with BSL>16 mmol/L two weeks post STZ injection are considered diabetic. Treatment with Compound 12 is carried out for 24 weeks from diagnosis of diabetes at a dose of 0.1-100 mg/Kg.

[3] = tested on: Bleomycin induced lung fibrosis; experiment: Bleomycin induced lung fibrosis model; assay type: in vivo; conditions: mouse, intranasal bleomycin; 15 mg/kg
Protocol: Inhibition of Bleomycin Induced Lung Fibrosis
Bleomycin induced lung fibrosis in rodents is a widely accepted experimental model to determine the anti-fibrotic activity of therapeutic agents.
Fibrosis is induced by intranasal administered of bleomycin sulphate at a dose of 0.05 U/mouse in a total volume of 50 uL PBS (see Corbel, M., et al Inhibition of bleomycin-induced pulmonary fibrosis in mice by the matrix metalloproteinase inhibitor batimastat J Pathol. 2001 April; 193(4):538-45.) Compound 12 is given 0.1-100 mg/Kg throughout the period of the experimental procedure or 7 days after bleomycin administration and then throughout the entire study.
Formalin fixed lungs sections stained with haematoxylin and eosin are assessed for fibrosis as per the scale outlined by Ashcroft et al (Simple method of estimating severity of pulmonary fibrosis on a numerical scale J Clin Pathol 1988; 41:467-470).

[4] = tested on: CCl4 induced liver fibrosis; experiment: CCl4 induced liver fibrosis model; assay type: in vivo, rat; conditions: rats, oral CCl4 for 6 weeks; 0.1-100 mg/Kg; compared with vehicle-treated group
Protocol: Inhibition of CCl4 Induced Liver Fibrosis
An analysis of the use of LOXL2 inhibitors to treat inflammatory/fibrotic diseases is performed through the use of a CCl4 induced liver fibrosis model. Liver injury is frequently followed by complete parenchymal regeneration due to regenerative potency of hepatocytes. Continuous liver injury due to the administration of CCl4 leads to extracellular matrix accumulation, accompanied by recurrent hepatocyte necrosis, inflammation, and regenerative processes, causing liver fibrosis and consequently liver cirrhosis (see Natsume, M., et al., Attenuated liver fibrosis and depressed serum albumin levels in carbon tetrachloride-treated IL-6-deficient mice. J. Leukoc. Biol., 1999, 66, 601-608 also See Yao, Q. Y., et al. Inhibition by curcumin of multiple sites of the transforming growth factor-beta1 signalling pathway ameliorates the progression of liver fibrosis induced by carbon tetrachloride in rats. BMC Complement Altern Med. 2012 Sep. 16; 12(1):156.)
Rats are administered orally with CCl4 at a concentration of 0.25 μL/g in olive oil, 3 times per week for 6 weeks. Compound 25 is given 0.1-100 mg/Kg throughout the period of the experimental procedure or only 3 weeks after CCl4 administration and then throughout the entire study. […]

[5] = tested on: Myocardial infarction induced fibrosis; experiment: Myocardial infarction induced fibrosis model; assay type: in vivo, mouse; conditions: mice, 0.1-100 mg/Kg once a day by oral gavage; FIG. 5
Excerpt: Inhibition of Myocardial Infarction Induced Fibrosis
Carotic ligation is a widely accepted experimental model to induce cardiac fibrosis and to determine the anti-fibrotic activity of therapeutic agents.
In mice, the chest is opened via a left thoracotomy. The left coronary artery is identified visually using a stereo microscope, and a 7-0 suture is placed around the artery 1-2 mm below the left auricle. Permanent occlusion of the left coronary artery resulted from its ligation with the suture. Myocardial ischemia was confirmed by pallor in heart color and ST-segment elevation. (see Parajuli et al. Phosphatase PTEN is critically involved in post-myocardial infarction remodeling through the Akt/interleukin-10 signaling pathway Basic Res Cardiol (2012) 107:248).
Mice were subjected to sham or carotic ligation surgery. At 24 hrs post-surgery, echocardiography was performed on the mice. Mice were treated with compound 25 0.1-100 mg/Kg once a day for 21 (7 days after carotic ligation) or 28 days or saline as vehicle controls by oral gavage. At the end of the experiment, echocardiography was repeated to assess left ventricular function and remodeling. Then mice were euthanized for heart collection. Each heart was photographed and fixed with 10% formalin. Hearts were sectioned for Masson's trichrome stain to measure fibrosis (See FIG. 5).

[6] = tested on: Streptozotocin and high fat diet induced liver fibrosis; experiment: Streptozotocin and high fat diet induced liver fibrosis (STAM model); assay type: in vivo, mouse; conditions: STAM mice, daily oral gavage 10-30 mg/kg; FIG. 6
Protocol: Streptozotocin and High Fat Diet Induced Liver Fibrosis
High fat/carbohydrate diet induced liver fibrosis is the most common reason for liver dysfunction and ultimately liver failure. NASH is induced in male mice by a single subcutaneous injection of 200 μg streptozotocin solution 2 days after birth and feeding with high fat diet after 4 weeks of age (STAM™ model).
LOXL2 inhibitor compound 112 was administered by daily oral gavage at doses between 10-30 mg/kg 8 weeks after streptozotocin application. Mice were sacrificed after NASH had been established and whole blood samples were taken via cardiac puncture. Liver samples were collected and washed with cold saline. Liver weight was measured. The left lateral, right and caudate lobes of livers were snap frozen in liquid nitrogen and stored at −80° C. For HE staining, sections were cut from paraffin blocks of liver tissue prefixed in Bouin's solution and stained with Lillie-Mayer's Hematoxylin and eosin solution. NAFLD Activity score (NAS) was calculated according to the criteria of Kleiner (Kleiner D E. et al., Design and validation of a histological scoring system for nonalcoholic fatty liver disease. Hepatology, 2005; 41:1313). To visualize collagen deposition, Bouin's fixed liver sections were stained using picro-Sirius red solution and the area of fibrosis was quantified (See FIG. 6).

## N#CCCN [BAPN, β-aminopropionitrile, reference compound]
[1]
  collagen cross-link formation (immature and mature cross-links): reduced cross-link formation in a concentration dependent manner

## CCOC(=O)c1ccc2c(c1)c(-c1cccc(S(=O)(=O)N(C)C)c1)c(C)n2C/C(F)=C/CN [Compound 12, (Z)-ethyl 1-(4-amino-2-fluorobut-2-en-1-yl)-3-(3-(N,N-dimethylsulfamoyl)phenyl)-2-methyl-1H-indole-5-carboxylate]
[2]
  kidney function by albumin/creatinine ratio quantification: significant improvement in kidney function
[2]; compared with vehicle-treated group
  reduction of fibrosis by Masson's Trichrome staining: up to 50%
[3]
  Ashcroft score in the lungs: significantly reduced this score

## Cc1c(-c2cccc(S(=O)(=O)N(C)C)c2)c2ncccc2n1C/C(F)=C/CN [Compound 25, (Z)-3-(1-(4-amino-2-fluorobut-2-en-1-yl)-2-methyl-1H-pyrrolo[3,2-b]pyridin-3-yl)-N,N-dimethylbenzenesulfonamide Dihydrochloride]
[4]
  reduction of fibrosis in the liver by sirius red staining with quantification: up to 50%
[5]
  fibrosis after ligation (Masson's trichrome stain): reduce fibrosis

## Cc1ccc2c(n1)c(-c1cccc(S(C)(=O)=O)c1)c(C)n2C/C(F)=C/CN [Compound 112, (Z)-4-(2,5-dimethyl-3-(3-(methylsulfonyl)phenyl)-1H-pyrrolo[3,2-b]pyridin-1-yl)-3-fluorobut-2-en-1-amine Dihydrochloride]
[6]
  liver fibrosis (picro-Sirius red area of fibrosis): reduce liver fibrosis
[1]
  collagen cross-link formation (immature and mature cross-links): reduced cross-link formation in a concentration dependent manner
